Experimental data from patent US12233060B2, “Inhibitors of Ataxia-Telangiectasia Mutated and Rad3-related protein kinase (ATR) for use in methods of treating cancer” (THE INSTITUTE OF CANCER RESEARCH: ROYAL CANCER HOSPITAL, priority 2016, dated 2025).

Assays:
[1] = test system: Arid1a+/+ and Arid1a−/− mouse embryonic stem (ES) cells; test: Clonogenic survival of mouse Arid1a isogenic ES cells; format: cell-based; settings: p<0.001 ANOVA
Experimental: FIG. 2. In vitro ARID1A/ATR synthetic lethality. A. Chemical structure of VX-970. B. Western blot of ARID1A in human ARID1A isogenic HCT116 cells. C. Image of colonies in 6 well-plate clonogenic assay. HCT116 ARID1A isogenic (^+/+ and ^−/−) cell lines were exposed to increasing concentrations of the VE-821 (0, 0.1, 1 uM) and VX-970 (0, 0.01, 0.05 uM) for 14 days. D and E. Dose response clonogenic survival curve of HCT116 ARID1A isogenic (^+/+ and ^−/−) cell lines exposed to increasing concentrations of the VE-821 and VX-970 for 14 days. Error bars represent SD from triplicate experiments, ANOVA p-value of <0.0001. F. Area under curve (AUC) box whisker comparison plot for human tumor cell lines exposed to VX-970 for five days. ARID1A wild type tumor cell lines (n=15) were compared to ARID1A mutant cell lines (n=9). Student's t-test p=0.00594. G. Dose response clonogenic survival curve of mouse Arid1a isogenic ES cell lines. Experiment was performed as per (C). Error bars represent SD from triplicate experiments, ANOVA p value of <0.0001. H. Western blot of Arid1a protein expression in mouse ES Arid1a isogenic cells. […]
(§1) Short-term survival assays were performed in 384-well plates. […] Drug was added 24 h after seeding and cells were continuously exposed to the drug for five days, after which cell viability was estimated using CellTitre-Glo luminescence (Promega). […] Colonies were counted manually. […]

[2] = test system: HCC1143 cells; test: 384 well plate cell survival after ARID1A siRNA transfection; format: cell-based, human; settings: ARID1A siRNA vs control, five continuous days exposure
Description: FIG. 1. […] A. Structure of VE-821 and schematic describing workflow for parallel VE-821 chemosensitisation screens in MCF12A and HCC1143 cells. B. Scatter plots of VE-821 Drug Effect (DE) Z-scores from all 1280 siRNAs used in the in the chemosensitisation screens. The DE Z-score threshold of −2 (red line) was used for defining candidate synthetic lethal interactions is shown. C. Venn diagram of DE<−2 VE-821 sensitisation hits in MCF12A and HCC1143 cells. Numbers shown indicate number of sensitisation genes. Amongst the 30 genes with DE Z-scores <−2 in both cell lines, seven well-established tumour suppressor genes were identified. D. Bar charts illustrating DE Z-scores for control, non-targeting, siRNAs (siALLSTAR, siCON1, siCON2) and ARID1A siRNAs in the chemosensitisation screens. Values shown are median from triplicate screens and error bars represent SD. […]
A siRNA library was purchased from Dharmacon. […] RNAi screening conditions were optimised and raw CellTitre-Glo (Promega) luminescent viability readings were generated as previously described21. […]
as §1

[3] = test system: TOV21G (ARID1A mutant) and RMG1 (ARID1A wildtype) cells; test: Five-day dose response in OCCC cell lines TOV21G and RMG1; format: cell-based, human; settings: 5 days exposure
Experimental: FIG. 3. In vivo ARID1A/ATR synthetic lethality. A. Schematic of VX-970 therapy experiment in mice bearing established HCT116 ARID1A^+/+ and ARID1A^−/− xenografts. Cells were inoculated subcutaneously into nude mice and tumors allowed to establish for 10 days. Mice were then randomized to treatment regimens of either VX-970 (60 mg/kg, 4× weekly by oral gavage) or vehicle. Mice were then treated for a subsequent 40 days. Tumor volume was monitored twice weekly. B. Relative tumor volume plot from (A) showing efficacy of VX-970 and selectivity for ARID1A^−/− xenografts* p=0.024, ANOVA. C. Schematic of tumor incidence experiment in mice with non-established HCT116 ARID1A^+/+ and ARID1A^−/− xenografts. Mice were inoculated with cells as before, randomized and then treated with VX-970. […] Tumor volume was monitored twice weekly and overall tumour incidence was assessed 40 days later. […] PARP-1, cleaved PARP-1 (85 kDa fragment) and tubulin were detected by western blot. […] Caspase3/7 activity was assessed using Caspase-Glo and total cellular viability was estimated using CellTitre-Glo. Luminescence ratios for Caspase-Glo (i.e. apoptotic cells) and CellTitre-Glo (ie viable cells) was determined for each dose and normalized to DMSO treated samples. *Student's t-test, p<0.05. […]
Short-term survival assays were performed in 384-well plates. […] Colonies were counted manually. […]

[4] = biological target: ATR (Homo sapiens, UniProt Q13535); settings: ATR catalytic inhibitor; reference 15; cited from earlier work
[5] = test system: HCT116 ARID1A isogenic (+/+ and −/−) cell lines; test: Clonogenic survival of ARID1A isogenic cells; format: cell-based, human
Experimental: FIG. 2. In vitro ARID1A/ATR synthetic lethality. A. Chemical structure of VX-970. B. Western blot of ARID1A in human ARID1A isogenic HCT116 cells. C. Image of colonies in 6 well-plate clonogenic assay. HCT116 ARID1A isogenic (^+/+ and ^−/−) cell lines were exposed to increasing concentrations of the VE-821 (0, 0.1, 1 uM) and VX-970 (0, 0.01, 0.05 uM) for 14 days. D and E. Dose response clonogenic survival curve of HCT116 ARID1A isogenic (^+/+ and ^−/−) cell lines exposed to increasing concentrations of the VE-821 and VX-970 for 14 days. Error bars represent SD from triplicate experiments, ANOVA p-value of <0.0001. F. Area under curve (AUC) box whisker comparison plot for human tumor cell lines exposed to VX-970 for five days. ARID1A wild type tumor cell lines (n=15) were compared to ARID1A mutant cell lines (n=9). Student's t-test p=0.00594. G. Dose response clonogenic survival curve of mouse Arid1a isogenic ES cell lines. Experiment was performed as per (C). Error bars represent SD from triplicate experiments, ANOVA p value of <0.0001. H. Western blot of Arid1a protein expression in mouse ES Arid1a isogenic cells. I. Z score box whisker comparison plot for 86 human tumor cell lines transfected with ATR siRNA. Cells lines were transfected with siRNA and cell viability was estimated five days later by Cell Titre Glo reagent.
Short-term survival assays were performed in 384-well plates. Exponentially growing cells were plated at a concentration of 500 cells/well. Drug was added 24 h after seeding and cells were continuously exposed to the drug for five days, after which cell viability was estimated using CellTitre-Glo luminescence (Promega). For clonogenic assays, cells were seeded in 6-well plates (500 cells/well) and continuously exposed to drug 24!h after seeding for 14 days. Media containing fresh drug was replaced every 72 hours. Cells were fixed with 10% trichloroacetic acid and stained with sulphorhodamine B (Sigma-Aldrich, Gillingham, UK). Colonies were counted manually. All cell-based assays were performed at least in triplicate.

ATR, sequence (Q13535 whole entry): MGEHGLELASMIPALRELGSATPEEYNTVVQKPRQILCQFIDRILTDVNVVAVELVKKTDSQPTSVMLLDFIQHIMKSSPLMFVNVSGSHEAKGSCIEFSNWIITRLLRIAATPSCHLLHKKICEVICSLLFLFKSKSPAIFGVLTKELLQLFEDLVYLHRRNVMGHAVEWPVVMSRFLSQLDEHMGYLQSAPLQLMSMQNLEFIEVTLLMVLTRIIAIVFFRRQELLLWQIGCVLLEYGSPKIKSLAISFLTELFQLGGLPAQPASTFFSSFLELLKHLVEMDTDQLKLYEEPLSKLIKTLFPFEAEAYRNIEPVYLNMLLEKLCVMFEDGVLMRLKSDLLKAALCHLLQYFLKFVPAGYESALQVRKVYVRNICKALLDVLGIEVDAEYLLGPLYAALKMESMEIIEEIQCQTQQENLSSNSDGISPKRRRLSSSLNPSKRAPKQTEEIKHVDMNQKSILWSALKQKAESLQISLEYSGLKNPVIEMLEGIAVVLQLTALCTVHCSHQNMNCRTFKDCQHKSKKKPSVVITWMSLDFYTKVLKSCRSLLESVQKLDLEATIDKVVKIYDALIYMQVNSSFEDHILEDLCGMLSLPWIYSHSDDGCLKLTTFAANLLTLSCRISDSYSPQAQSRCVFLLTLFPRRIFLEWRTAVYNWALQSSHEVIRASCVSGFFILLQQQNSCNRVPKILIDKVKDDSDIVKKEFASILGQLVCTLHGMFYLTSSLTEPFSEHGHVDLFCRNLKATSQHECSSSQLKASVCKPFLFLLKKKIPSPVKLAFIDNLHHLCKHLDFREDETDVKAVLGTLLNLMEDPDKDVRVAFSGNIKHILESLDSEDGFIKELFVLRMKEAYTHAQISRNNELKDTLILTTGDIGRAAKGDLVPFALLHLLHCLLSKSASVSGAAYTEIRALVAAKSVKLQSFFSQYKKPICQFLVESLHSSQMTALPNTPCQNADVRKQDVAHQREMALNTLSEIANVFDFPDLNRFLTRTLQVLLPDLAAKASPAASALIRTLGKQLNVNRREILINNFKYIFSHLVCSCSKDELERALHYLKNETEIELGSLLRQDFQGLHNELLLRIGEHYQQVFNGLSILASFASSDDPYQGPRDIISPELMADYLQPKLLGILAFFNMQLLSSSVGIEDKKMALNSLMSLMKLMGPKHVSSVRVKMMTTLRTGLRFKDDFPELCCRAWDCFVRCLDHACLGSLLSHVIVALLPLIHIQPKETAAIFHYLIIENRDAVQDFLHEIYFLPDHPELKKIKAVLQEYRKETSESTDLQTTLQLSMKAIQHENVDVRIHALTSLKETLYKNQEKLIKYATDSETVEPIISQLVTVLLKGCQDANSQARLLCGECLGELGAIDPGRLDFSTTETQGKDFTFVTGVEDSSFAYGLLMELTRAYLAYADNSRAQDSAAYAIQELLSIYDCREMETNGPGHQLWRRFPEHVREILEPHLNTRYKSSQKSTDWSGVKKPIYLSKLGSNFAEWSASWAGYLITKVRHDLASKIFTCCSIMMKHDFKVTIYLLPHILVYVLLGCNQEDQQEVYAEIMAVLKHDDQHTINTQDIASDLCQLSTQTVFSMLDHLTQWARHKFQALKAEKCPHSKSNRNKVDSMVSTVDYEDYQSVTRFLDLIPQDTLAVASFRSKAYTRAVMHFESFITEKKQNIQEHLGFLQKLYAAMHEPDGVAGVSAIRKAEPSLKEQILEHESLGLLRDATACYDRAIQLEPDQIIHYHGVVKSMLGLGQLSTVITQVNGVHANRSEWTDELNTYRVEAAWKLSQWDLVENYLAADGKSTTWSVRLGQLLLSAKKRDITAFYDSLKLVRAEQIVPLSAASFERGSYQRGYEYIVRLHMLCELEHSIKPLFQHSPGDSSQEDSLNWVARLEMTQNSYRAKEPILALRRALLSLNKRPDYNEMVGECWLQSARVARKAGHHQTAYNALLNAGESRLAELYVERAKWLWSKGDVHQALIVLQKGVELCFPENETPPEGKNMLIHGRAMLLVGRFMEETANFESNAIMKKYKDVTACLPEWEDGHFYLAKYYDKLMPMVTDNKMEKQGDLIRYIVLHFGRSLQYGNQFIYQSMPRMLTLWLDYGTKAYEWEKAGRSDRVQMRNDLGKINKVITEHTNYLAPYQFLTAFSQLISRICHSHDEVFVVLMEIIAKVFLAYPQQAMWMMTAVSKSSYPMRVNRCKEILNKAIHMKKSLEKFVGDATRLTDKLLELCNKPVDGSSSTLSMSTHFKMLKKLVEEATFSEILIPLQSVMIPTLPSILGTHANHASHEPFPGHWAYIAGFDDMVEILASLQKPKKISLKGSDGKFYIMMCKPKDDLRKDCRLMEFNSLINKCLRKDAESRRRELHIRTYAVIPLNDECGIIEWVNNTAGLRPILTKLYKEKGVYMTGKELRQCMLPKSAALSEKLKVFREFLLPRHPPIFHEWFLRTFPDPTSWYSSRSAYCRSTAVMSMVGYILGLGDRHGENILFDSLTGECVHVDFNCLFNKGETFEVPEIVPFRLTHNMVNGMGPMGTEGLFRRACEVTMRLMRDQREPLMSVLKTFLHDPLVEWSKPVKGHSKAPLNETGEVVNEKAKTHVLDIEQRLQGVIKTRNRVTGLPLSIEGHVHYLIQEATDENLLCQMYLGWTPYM
ATR, sequence (Q8WXE1 whole entry partner): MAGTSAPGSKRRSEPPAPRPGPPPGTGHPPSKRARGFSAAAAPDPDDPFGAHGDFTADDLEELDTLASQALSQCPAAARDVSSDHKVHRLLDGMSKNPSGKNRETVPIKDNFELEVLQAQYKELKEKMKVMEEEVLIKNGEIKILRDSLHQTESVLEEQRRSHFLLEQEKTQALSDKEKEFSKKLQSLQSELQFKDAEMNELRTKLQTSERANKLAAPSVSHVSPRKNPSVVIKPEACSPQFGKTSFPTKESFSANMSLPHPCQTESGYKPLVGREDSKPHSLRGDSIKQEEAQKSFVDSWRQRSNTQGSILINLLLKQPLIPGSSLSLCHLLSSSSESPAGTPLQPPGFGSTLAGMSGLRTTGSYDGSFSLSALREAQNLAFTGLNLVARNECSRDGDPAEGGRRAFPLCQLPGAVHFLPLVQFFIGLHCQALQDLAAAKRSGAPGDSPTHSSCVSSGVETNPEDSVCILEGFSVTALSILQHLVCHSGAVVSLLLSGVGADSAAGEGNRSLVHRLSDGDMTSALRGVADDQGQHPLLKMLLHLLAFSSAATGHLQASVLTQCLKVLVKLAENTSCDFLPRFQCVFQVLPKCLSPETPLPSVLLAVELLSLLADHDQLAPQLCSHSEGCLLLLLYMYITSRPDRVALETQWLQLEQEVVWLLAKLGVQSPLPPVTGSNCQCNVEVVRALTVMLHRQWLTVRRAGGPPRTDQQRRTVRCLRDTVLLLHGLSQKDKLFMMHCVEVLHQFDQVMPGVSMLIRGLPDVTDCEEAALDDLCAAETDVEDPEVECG

CS(=O)(=O)c1ccc(-c2cnc(N)c(C(=O)Nc3ccccc3)n2)cc1 [VE-821, 3-amino-6-(4-methylsulfonylphenyl)-N-phenyl-pyrazine-2-carboxamide]
selective targeting of Arid1a−/− ES cells in clonogenic assays [1]: selectively targeted Arid1a^−/− ES cells
ATRi sensitivity caused by ARID1A siRNA [2]: significantly enhanced sensitivity to VE-821
sensitivity of TOV21G vs RMG1 [3]: more sensitive to both VE-821 and VX-970
Ki [4]: 13 nM

CN(Cc1cnc2nc(N)nc(N)c2n1)c1ccc(C(=O)N[C@@H](CCC(=O)O)C(=O)O)cc1 [methotrexate]
ARID1A−/− selectivity [5]: neither taxol or methotrexate elicited ARID1A^−/− selectivity

CC(=O)O[C@H]1C(=O)[C@@]2(C)[C@H]([C@H](OC(=O)c3ccccc3)[C@]3(O)C[C@H](OC(=O)[C@H](O)[C@@H](NC(=O)c4ccccc4)c4ccccc4)C(C)=C1C3(C)C)[C@]1(OC(C)=O)CO[C@@H]1C[C@@H]2O [taxol]
ARID1A−/− selectivity [5]: neither taxol or methotrexate elicited ARID1A^−/− selectivity
